Experimental data as given in US5180825A, “Mitomycin derivatives” (Kyowa Hakko Kogyo Co., Ltd., priority 1990, dated 1993).

How the values were obtained:
HeLa S3 cells = experiment: Growth Inhibition Test on HeLa S3 Cells; format: cell-based; details: Homo sapiens, 1 hour exposure, then 72 hours incubation, Neutral Red, 550 nm
Experimental: Growth Inhibition Test on HeLa S3 Cells
HeLa S3 cells were suspended in a MEM medium containing 10% fetal calf serum and 2 mM glutamine at a concentration of 3×10^4 cells/ml, and 0.1 ml of the cell suspension was put into each well of a 96-well microtiter plate.
After culturing at 37° C. overnight in a carbon dioxide gas incubator, 0.05 ml of a test sample appropriately diluted with the medium was added to each well. The cells were further cultured for one hour in the carbon dioxide gas incubator and the culture supernatant was removed. The residue was washed once with a phosphate buffer saline [PBS(-)] and 0.1 ml of a fresh medium was added to each well, and the cells were further incubated at 37° C. for 72 hours in the carbon dioxide gas incubator. After removal of the supernatant, 0.1 ml of a culture medium containing 0.02% Neutral Red was added to each well, and the cells were further incubated at 37° C. for one hour in the carbon dioxide gas incubator to stain the cells. After removal of the culture supernatant, each well was washed once with a physiological saline, and the dye was extracted with 0.001 N HCl/30% methanol. Absorbance of the extract at 550 nm was measured with a microplate reader. The cell growth inhibition percentage was calculated according to the following formula from the absorbance of the extract of the cells treated with the test compound in various concentrations and that of intact cells. [formula]
From the cell growth inhibition percentage thus obtained, the concentration of the test compound which inhibits cell growth by 50% (IC50) was determined.

[1] = Acute Toxicity (single intravenous injection); details: mouse, in vivo, ddY mice, single i.v., 14 days observation, Behrens Kaerber's method
Experimental: A test compound was intravenously injected once to five ddY mice as one group. […] LD50 was calculated from the death rate of each group according to the Behrens Kaerber's method.

Sarcoma 180 Solid Tumor = experiment: Anti-tumor Activity to Sarcoma 180 Solid Tumor; format: in vivo; details: Mus musculus, Sarcoma-180, iv, 168 h; dose of showing T/C=0.5 (tumor volume), male ddY mice, single i.v. 24 hours after s.c. implantation, measured at 7 days
Experimental: Anti-tumor Activity to Sarcoma 180 Solid Tumor
5×10^6 Sarcoma 180 cells were abdominally implanted into a ddY mouse and the cells were collected from the ascites of the mouse 7 days after the implantation. The cells were washed once with a sterilized physiological saline solution and then suspended in a sterilized physiological saline solution to prepare a cell suspension of 5×10^7 cells/ml. 0.1 ml of the cell suspension was subcutaneously implated into the right axillary space of each of male ddY mice weighing 20±2 g.
A test compound was dissolved in a physiological saline solution or a polyoxyethylene sorbitan monolaurate-containing physiological saline solution, and 0.1 to 0.2 ml of the solution was intravenously injected to five mice as one group 24 hours after the implatation of the tumor cells.
The anti-tumor activity of the test compound was determined by measuring the major diameter (a) and the minor diameter (b) of the tumor 7 days after the implantation of tumor cells, and the value of (a×b^2/ 2), which corresponds to the volume of the tumor, was calculated. The intended anti-tumor activity is represented by a ratio of T/C, in which C indicates the tumor volume of mice of the control group to which a physiological saline solution instead of the test compound was administered and T indicates the tumor volume of mice of the test group to which the test compound was administered. T/C at each dose given was plotted in a graph in which T/C is shown by an ordinary scale on the vertical axis and a dose is shown by a logarithmic scale on the horizontal axis. The relation between the dose and T/C was determined to be a straight line by the least-squares method. From the regression formula of the straight line thus obtained, the dose of showing T/C=0.5 is calculated to give ED50.

CO[C@@]12[C@H](COC(N)=O)C3=C(C(=O)C(CSc4ccccn4)=C(N)C3=O)N1C[C@@H]1N[C@@H]12 [Compound 1, 6-Demethyl-6-[(2-pyridylthio)methyl]mitomycin C]
IC50 (HeLa S3 cells): 1.8 µM

CO[C@@]12[C@H](COC(N)=O)C3=C(C(=O)C(CSc4ncccc4O)=C(N)C3=O)N1C[C@@H]1N[C@@H]12 [Compound 2, 6-Demethyl-6-[[(3-hydroxypyridin-2-yl)thio]methyl]mitomycin C]
IC50 (HeLa S3 cells): 0.19 µM
LD50 at 336 h [1]: 15 mg/kg
ED50 (Sarcoma 180 Solid Tumor): 3.7 mg/kg

CO[C@@]12[C@H](COC(N)=O)C3=C(C(=O)C(CSc4ncccn4)=C(N)C3=O)N1C[C@@H]1N[C@@H]12 [Compound 3, 6-Demethyl-6-[(2-pyrimidinylthio)methyl]mitomycin C]
IC50 (HeLa S3 cells): 0.95 µM
LD50 at 336 h [1]: 26 mg/kg
ED50 (Sarcoma 180 Solid Tumor): 8.9 mg/kg

CO[C@@]12[C@H](COC(N)=O)C3=C(C(=O)C(CSc4nc(C)cc(C)n4)=C(N)C3=O)N1C[C@@H]1N[C@@H]12 [Compound 4, 6-Demethyl-6-[[(4,6-dimethylpyrimidin-2-yl)thio]methyl]mitomycin C]
IC50 (HeLa S3 cells): 1.1 µM

CO[C@@]12[C@H](COC(N)=O)C3=C(C(=O)C(CSC4=NCCS4)=C(N)C3=O)N1C[C@@H]1N[C@@H]12 [Compound 11, 6-Demethyl-6-[(2-thiazolinylthio)methyl]mitomycin C]
IC50 (HeLa S3 cells): 0.82 µM
LD50 at 336 h [1]: 9.4 mg/kg
ED50 (Sarcoma 180 Solid Tumor): 5.9 mg/kg

CO[C@@]12[C@H](COC(N)=O)C3=C(C(=O)C(CSc4nccs4)=C(N)C3=O)N1C[C@@H]1N[C@@H]12 [Compound 12, 6-Demethyl-6-[(2-thiazolylthio)methyl]mitomycin C]
IC50 (HeLa S3 cells): 1.4 µM

CO[C@@]12[C@H](COC(N)=O)C3=C(C(=O)C(CSc4nc5ccccc5s4)=C(N)C3=O)N1C[C@@H]1N[C@@H]12 [Compound 13, 6-Demethyl-6-[(2-benzothiazolylthio)methyl]mitomyc-in C]
IC50 (HeLa S3 cells): 0.7 µM
LD50 at 336 h [1]: > 50 mg/kg
ED50 (Sarcoma 180 Solid Tumor): 36 mg/kg

CO[C@@]12[C@H](COC(N)=O)C3=C(C(=O)C(CS[C@@H]4O[C@H](COC(C)=O)[C@@H](OC(C)=O)[C@H](OC(C)=O)[C@H]4OC(C)=O)=C(N)C3=O)N1C[C@@H]1N[C@@H]12 [Compound 16, 6-Demethyl-6-[[(2,3,4,6-tetra-O-acetyl-β-D-glucopyranosyl)thio]methyl]mitomycin C]
IC50 (HeLa S3 cells): 1.1 µM
LD50 at 336 h [1]: 38 mg/kg
ED50 (Sarcoma 180 Solid Tumor): 24 mg/kg
